Assay results: patent publication US20160175308A1, “THERAPEUTIC AGENTS FOR MODULATING THYMIC FUNCTION AND/OR GROWTH AND/OR TREATING VARIOUS DISORDERS” (UCL BUSINESS PLC, priority 2013, published 2016)

Columns and labels:
Assay type in all cases: in vivo, mouse
[1] = tested on: C57/BI6N wildtype mice; experiment: Lapatinib treatment of geriatric mice: thymus histology and BrdU immunohistochemistry; conditions: lapatinib vs control
Method: Eighteen month old C57/BI6N wildtype mice used in Lapatinib studies were purchased from Charles River Laboratories (UK). All mice were housed on a 12 hour light/dark cycle, in individually ventilated cages with access to standard rodent diet (Harlan, UK) and tap water ad libitum. Mice were euthanized by intraperitoneal injection of 0.2 mL sodium pentobarbital (Euthatal, Merial Animal Health, UK).
(§1) Dox was administered ad libitum in a foil-wrapped standard drinking bottle; fresh Dox was given every 48 hours. 300 mg Lapatinib (#J62401, Alfa Aesar, USA) was prepared in 12 mL DMSO (#472301, Sigma, UK) at a final concentration of 25 mg/mL. Mice were given 2.5 mg (100 µL) Lapatinib or an equivalent dose of DMSO alone 5 times per week for 4 weeks by oral gavage. One hour prior to euthanasia all mice for subsequent histological analysis were injected with 150 μL of 10 mg/mL BrdU solution (Invitrogen, UK) to label proliferating cells.
All cell suspensions (thymus, lymph node, blood) were diluted to 1 million cells/mL for antibody staining and flow cytometry analysis. Antibodies for flow cytometry analysis were as follows: CD3-FITC (17a2, Invitrogen, UK), CD4-PE (I3t4, BD Pharmingen, UK), CD8a-Q605 (53-6.7, eBioscience, UK), CD19-A421 (6D5, Biolegend, UK), CD11b-A421 (eBioscience, UK), Ter119-A421 (TER119, eBioscience, UK), CD47-APC780 (1M7, eBioscience, UK), CD25-A660 (7D4, eBioscience, UK), Nk1.1-APC780 (PK136, eBioscience, UK), NkP46-a660 (29a1.4, eBioscience, UK). All antibodies were diluted to 2 μL/10̂6 cells in 1 mL final volume; unstained and single antibody stained controls were used to set all voltage and gate compensations. Antibody staining was for 30 minutes at 4 degrees Celsius, after which time cells were centrifuged at 1250 rpm for 5 minutes and cell pellets resuspended in 1 mL RPMI 1640. All flow cytometry analysis was performed on either an LSR2 or LSR Fortessa flow cytometry system. A minimum of 10,000 events was collected for each analysis (phenotype, T cell developmental stage, peripheral blood and lymph node cell analysis). […]

[2] = tested on: C57/BI6N wildtype mice; experiment: Lapatinib treatment of geriatric mice: thymus size/weight; conditions: 18 month old mice, 2.5 mg/day lapatinib oral gavage 5x/week for 5 weeks vs DMSO control, n=10/group, p<0.05
[3] = tested on: C57/BI6N wildtype mice; experiment: Lapatinib treatment of elderly mice: thymus cell counts and flow cytometry of T lymphocyte populations; conditions: n=5/group
Method: […] All mice were housed on a 12 hour light/dark cycle, in individually ventilated cages with access to standard rodent diet (Harlan, UK) and tap water ad libitum. Mice were euthanized by intraperitoneal injection of 0.2 mL sodium pentobarbital (Euthatal, Merial Animal Health, UK).
as §1
Thymus and lymph nodes were prepared for flow cytometry by incubation in a 2 mL solution of RPMI […] (Invitrogen, UK) containing Liberase TL (0.3 mg/mL; Roche, Germany) plus DNAse I (0.2 mg/ml, Roche, Germany) for 30 minutes at 37 degrees Celsius. Thymus and lymph node tissue was then macerated through a […] filter (BD, USA) and enzymes inactivated by further washing with 30 mL PBS (Invitrogen, UK) plus 5 mM EDTA (Sigma, UK). This single cell suspension was centrifuged for 5 minutes at 1250 rpm, the supernatant removed, and the cell pellet resuspended in 3 mL RPMI 1640 (lymph nodes) or 5 mL RPMI 1640 (thymus). Total cell counts were obtained using a Millicell automated hematocytometer. Blood cells were prepared for flow cytometry by direct blood collection from the descending aorta in a capillary Microvette tube containing EDTA (CB 300 K2E, Sarstedt, Germany), elimination of red blood cells using lysis buffer (R7757, Sigma, UK) and dilution in 30 mL RPMI 1640. Blood cells were then pelleted by centrifugation as above and resuspended in 20 mL RPMI 1640 and cell counts obtained using a Millicell automated hematocytometer.
All cell suspensions (thymus, lymph node, blood) were diluted to 1 million cells/mL for antibody staining and flow cytometry analysis. Antibodies for flow cytometry analysis were as follows: CD3-FITC (17a2, Invitrogen, UK), CD4-PE (I3t4, BD Pharmingen, UK), CD8a-Q605 (53-6.7, eBioscience, UK), CD19-A421 (6D5, Biolegend, UK), CD11b-A421 (eBioscience, UK), Ter119-A421 (TER119, eBioscience, UK), CD47-APC780 (1M7, eBioscience, UK), CD25-A660 (7D4, eBioscience, UK), Nk1.1-APC780 (PK136, eBioscience, UK), NkP46-a660 (29a1.4, eBioscience, UK). All antibodies were diluted to 2 μL/10̂6 cells in 1 mL final volume; unstained and single antibody stained controls were used to set all voltage and gate compensations. Antibody staining was for 30 minutes at 4 degrees Celsius, after which time cells were centrifuged at 1250 rpm for 5 minutes and cell pellets resuspended in 1 mL RPMI 1640. All flow cytometry analysis was performed on either an LSR2 or LSR Fortessa flow cytometry system. A minimum of 10,000 events was collected for each analysis (phenotype, T cell developmental stage, peripheral blood and lymph node cell analysis). All experiments represent at least an n=4 for each condition and all analyses were done using FlowJo software. Thymus tissue sections were prepared for BrdU immunohistochemistry by dewaxing using an automated tissue staining system (TissueTek), blocking for 1 hour at room temperature in blocking solution (PBS containing 10% fetal bovine serum (10270-106, Invitrogen, UK) plus fish skin gelatin (G7765, Sigma, UK)). A BrdU primary antibody (rat, Covance, UK) was diluted in blocking solution and slides were incubated overnight in this antibody solution at 4 degrees Celsius. Slides were then washed in PBS and an anti-rat Alexa 555 secondary antibody (Invitrogen, UK) was applied in blocking solution for 3 hours at room temperature, washed, and slides coverslipped using Mowiol mounting media.

[4] = 15-18 month old mice vs DMSO treated controls
[5] = 15 month old mice, CD4/CD8/lineage negative thymocytes, vs DMSO

Question: `CS(=O)(=O)CCNCc1ccc(-c2ccc3ncnc(Nc4ccc(OCc5cccc(F)c5)c(Cl)c4)c3c2)o1` [Lapatinib, N-[3-chloro-4-[(3-fluorophenyl)methoxy]phenyl]-6-[5-[(2-methylsulfonylethylamino)methyl]-2-furyl]quinazolin-4-amine] was tested. Which “BrdU cell abundance (thymocyte proliferation)” value ([1]; BrdU staining, n=5/treatment type, p<0.05) did it give?
Answer: statistically significant increase in thymocyte proliferation

Question: And the “thymus histological appearance (cortico-medullary boundaries)” value ([1]; H&E sections)?
Answer: restored thymic cortico-medullary boundaries and improved overall thymus histological appearance

Question: What about the thymus involution ([1]; elderly mice) of the same compound?
Answer: reverses thymus involution

Question: And the “thymus size / thymus weight” value [2]?
Answer: increase thymus weight

Question: What about the “thymus size / thymus weight” value ([2]; listed as lapatinib) of the same compound?
Answer: increases thymus size

Question: What about the “CD4 T cell production” value [3, 4] of the same compound?
Answer: trend towards increased

Question: And the “CD8 T cell production” value [3, 4]?
Answer: trend towards increased

Question: What about the “DN-T T cell production” value [3, 4] of the same compound?
Answer: trend towards increased

Question: What about the “production of immature (double positive, DP-T) T lymphocytes” value [3, 4] of the same compound?
Answer: increases production

Question: What about the thymus cell abundance [3, 4] of the same compound?
Answer: increased thymus cell abundance

Question: What about the “DN1 (CD44+/CD25−) immature T cell abundance” value [3, 5] of the same compound?
Answer: significantly reduced

Question: And the “DN2 (CD44+/CD25+) immature T cell abundance” value [3, 5]?
Answer: significantly reduced

Question: And the “DN4 (CD44/CD25 negative) cell abundance” value [3, 5]?
Answer: increased
